In paper PMC11181336, “Discovery of ITI-333, a Novel Orally Bioavailable Molecule Targeting Multiple Receptors for the Treatment of Pain and Other Disorders” (Journal of Medicinal Chemistry, 2024):
pKi: −log10 of the molar value. Where two headings read alike, the source gives them in different places.

Tests used:
male C57Bl/6 mice = assay: Mouse formalin paw assay for inflammatory pain; assay type: in vivo; conditions: SC administration 30 min prior; morphine 5 mg/kg; compound 5 0.3, 1 or 3 mg/kg
[1] = biological target: human recombinant dopamine D1 receptor (Homo sapiens, UniProt P21728); assay: Dopamine D1 receptor binding, [3H]SCH 23390 displacement; conditions: for inhibition at 0.1 µM: read-out: D1 % inhibition
Chain of human recombinant dopamine D1 receptor (P21728 whole entry): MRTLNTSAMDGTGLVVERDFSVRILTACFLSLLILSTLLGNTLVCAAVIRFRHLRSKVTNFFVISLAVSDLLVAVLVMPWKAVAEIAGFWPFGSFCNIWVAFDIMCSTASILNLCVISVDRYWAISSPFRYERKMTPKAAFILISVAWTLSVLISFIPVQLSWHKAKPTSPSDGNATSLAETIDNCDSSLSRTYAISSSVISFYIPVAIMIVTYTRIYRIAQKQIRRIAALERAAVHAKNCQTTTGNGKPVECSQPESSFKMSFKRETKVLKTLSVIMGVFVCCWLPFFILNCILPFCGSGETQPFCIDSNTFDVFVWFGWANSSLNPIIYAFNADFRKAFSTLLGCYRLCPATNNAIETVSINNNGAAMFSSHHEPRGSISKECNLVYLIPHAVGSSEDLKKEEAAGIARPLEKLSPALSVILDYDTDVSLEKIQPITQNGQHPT

male CD-1 mice = conditions: mouse, in vivo
[2] = biological target: T1, human recombinant 5-HT transporter (SERT) (Homo sapiens, UniProt P31645); assay: biochemical; assay type: binding; conditions: for inhibition at 0.1 µM / inhibition at 0.2 µM: read-out: SERT % inhibition
T1 construct: host or cells: CHO-S / SERT (h), cell membrane homogenates
T1 sequence (P31645 whole entry): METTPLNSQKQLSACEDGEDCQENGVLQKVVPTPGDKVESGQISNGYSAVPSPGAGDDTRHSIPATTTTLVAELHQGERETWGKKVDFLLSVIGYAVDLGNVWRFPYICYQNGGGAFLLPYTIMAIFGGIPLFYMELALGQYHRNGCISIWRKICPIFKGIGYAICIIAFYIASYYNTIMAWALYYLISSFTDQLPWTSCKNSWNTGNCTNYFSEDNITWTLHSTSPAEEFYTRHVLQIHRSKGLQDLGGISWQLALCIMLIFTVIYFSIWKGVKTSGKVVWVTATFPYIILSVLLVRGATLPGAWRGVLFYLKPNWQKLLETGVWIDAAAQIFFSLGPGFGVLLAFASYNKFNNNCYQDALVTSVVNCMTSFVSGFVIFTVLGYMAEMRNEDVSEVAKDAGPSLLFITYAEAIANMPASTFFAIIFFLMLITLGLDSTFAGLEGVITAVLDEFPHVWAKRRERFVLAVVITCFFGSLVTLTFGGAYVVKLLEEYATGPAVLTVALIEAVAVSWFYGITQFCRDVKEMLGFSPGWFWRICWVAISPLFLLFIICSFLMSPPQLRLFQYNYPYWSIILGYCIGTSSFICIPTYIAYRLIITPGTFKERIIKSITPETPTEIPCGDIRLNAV

[3] = biological target: T2, human full-length recombinant serotonin 5-HT2A receptors (Homo sapiens, UniProt P28223); assay: biochemical; assay type: binding; conditions: for inhibition at 0.1 µM: read-out: 5-HT2A % inhibition
T2 construct: human full-length recombinant serotonin 5-HT2A receptors expressed in HEK-293E cells
T2 sequence (P28223 whole entry): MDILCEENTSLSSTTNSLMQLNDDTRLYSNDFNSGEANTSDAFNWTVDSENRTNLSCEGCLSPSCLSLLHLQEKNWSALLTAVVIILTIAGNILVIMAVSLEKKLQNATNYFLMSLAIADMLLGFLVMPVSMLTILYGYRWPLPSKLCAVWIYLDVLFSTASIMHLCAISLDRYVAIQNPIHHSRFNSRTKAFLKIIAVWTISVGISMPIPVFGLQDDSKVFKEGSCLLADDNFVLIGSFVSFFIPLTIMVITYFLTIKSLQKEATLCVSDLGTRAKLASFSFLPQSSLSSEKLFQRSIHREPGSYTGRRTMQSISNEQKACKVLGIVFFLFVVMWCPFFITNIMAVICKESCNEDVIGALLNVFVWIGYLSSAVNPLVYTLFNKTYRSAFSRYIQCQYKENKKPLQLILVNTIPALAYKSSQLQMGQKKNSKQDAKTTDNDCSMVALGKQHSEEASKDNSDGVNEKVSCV

[4] = biological target: human recombinant dopamine D2 short receptor (Homo sapiens, UniProt P14416); assay: Dopamine D2 receptor binding, [3H]7-OH-DPAT displacement; conditions: for inhibition at 0.1 µM: read-out: D2 % inhibition
Chain of human recombinant dopamine D2 short receptor (P14416 1-414 isoform P14416-2): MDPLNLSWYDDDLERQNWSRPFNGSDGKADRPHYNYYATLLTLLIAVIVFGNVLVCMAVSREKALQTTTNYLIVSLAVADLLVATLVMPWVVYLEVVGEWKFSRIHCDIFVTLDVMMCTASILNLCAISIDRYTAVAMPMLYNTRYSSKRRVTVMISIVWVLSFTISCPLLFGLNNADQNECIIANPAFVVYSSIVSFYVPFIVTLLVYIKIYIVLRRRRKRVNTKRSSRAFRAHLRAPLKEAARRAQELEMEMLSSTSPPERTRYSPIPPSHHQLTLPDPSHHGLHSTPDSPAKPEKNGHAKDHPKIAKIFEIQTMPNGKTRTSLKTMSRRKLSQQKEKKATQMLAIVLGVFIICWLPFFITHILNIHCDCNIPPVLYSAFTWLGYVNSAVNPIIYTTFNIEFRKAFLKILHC

[5] = inhibition at 100 nM, NI = no inhibition

Compound	inhibition at 0.1 µM [1] [%]	inhibition at 0.1 µM [3] [%]	inhibition at 0.1 µM [1, 5] [%]	inhibition at 0.1 µM [4, 5] [%]	inhibition at 0.2 µM [2] [%]	pKi [3]	also measured
O=C1CN2c3c(cccc3[C@@H]3CN(CCCOc4ccc(F)cc4)CC[C@@H]32)N1 [compound 5, (6bR,10aS)-8-(3-(4-Fluorophenoxy)propyl)-6b,7,8,9,10,10a-hexahydro-1H-pyrido[3′,4′:4,5]pyrrolo[1,2,3-de]quinoxalin-2(3H)-one]	44						licking response to formalin injection (male C57Bl/6 mice): dose-dependently reduced; D1(Ki or (% Inhibition)): % inhibition [1]: 50 (44%)
CN1CC[C@]23c4c5ccc(O)c4O[C@H]2[C@@H](O)C=C[C@H]3[C@H]1C5 [morphine]							licking response to formalin injection (male C57Bl/6 mice): significantly suppressed; analgesic effect after pretreatment with naloxone (male CD-1 mice): attenuated; latency to tail flick compared to the vehicle (male CD-1 mice): significantly increased
O=C1CN2c3c(cccc3[C@@H]3CN(CCCOc4cccc(F)c4)CC[C@@H]32)N1 [compound 37, (6bR,10aS)-8-(3-(3-Fluorophenoxy)propyl)-6b,7,8,9,10,10a-hexahydro-1H-pyrido[3′,4′:4,5]pyrrolo[1,2,3-de]quinoxalin-2(3H)-one]		78	32	14			inhibition at 0.1 µM [2]: 7.7%
O=C1CN2c3c(cccc3[C@@H]3CN(CCCO)CC[C@@H]32)N1 [compound 22, (6bR,10aS)-8-(3-Hydroxypropyl)-6b,7,8,9,10,10a-hexahydro-1H-pyrido[3′,4′:4,5]pyrrolo[1,2,3-de]quinoxalin-2(3H)-one]		8	< 0	< 0	< 0		
O=C1CN2c3c(cccc3[C@@H]3CN(CCCOc4ccc(F)c(F)c4)CC[C@@H]32)N1 [compound 39, (6bR,10aS)-8-(3-(3,4-Difluorophenoxy)propyl)-6b,7,8,9,10,10a-hexahydro-1H-pyrido[3′,4′:4,5]pyrrolo-[1,2,3-de]quinoxalin-2(3H)-one]	15	71			15	7.79	pKi [2]: 6.29; SERT (Ki or (% Inhibition)): % inhibition [2]: 508 (15%); 5-HT2A (Ki or (% Inhibition)): % inhibition [3]: 16.1 (71%); fold reduction of affinity to 5-HT2A receptors [3]: approximately 6 fold; D1(Ki or (% Inhibition)): % inhibition [1]: 232 (15%); pKi [1]: 6.63; D2(Ki or (% Inhibition)): % inhibition [4]: 1620 (7%); pKi [4]: 5.79; inhibition at 0.1 µM [4]: 7%
O=C1CN2c3c(cccc3[C@@H]3CN(CCCc4n[nH]c5cc(F)ccc45)CC[C@@H]32)N1 [compound 24, (6bR,10aS)-8-(3-(6-Fluoro-1H-indazol-3-yl)propyl)-6b,7,8,9,10,10a-hexahydro-1H-pyrido[3′,4′:4,5]pyrrolo-[1,2,3-de]quinoxalin-2(3H)-one]						8.59	pKi [2]: 6.27; pKi [1]: 8.28; pKi [4]: 7.82
Cc1ccc(OCCCN2CC[C@H]3[C@@H](C2)c2cccc4c2N3CC(=O)N4)cc1 [compound 32, (6bR,10aS)-8-(3-(p-Tolyloxy)propyl)-6b,7,8,9,10,10a-hexahydro-1H-pyrido[3′,4′:4,5]pyrrolo[1,2,3-de]-quinoxalin-2(3H)-one]		62	13	20			inhibition at 0.1 µM [2]: 9.6%
O=C1CCN2c3c(cccc3[C@@H]3CN(CCCOc4ccc(F)cc4)CC[C@@H]32)N1 [compound 53, (8aS,12aR)-11-(3-(4-Fluorophenoxy)propyl)-6,7,8a,9,10,11,12,12a-octahydro-[1,4]diazepino[3,2,1-hi]pyrido[4,3-b]indol-5(4H)-one]		93	14	24	29		
O=C1CN2c3c(cccc3[C@@H]3CN(CCCOc4ccccc4)CC[C@@H]32)N1 [compound 23, (6bR,10aS)-8-(3-Phenoxypropyl)-6b,7,8,9,10,10a-hexahydro-1H-pyrido[3′,4′:4,5]-pyrrolo[1,2,3-de]quinoxalin-2(3H)-one]	24	84			8	8.55	inhibition at 0.1 µM [4]: 34%
